We go through 4 compounds from patent US10604554B2, “Double-acylated GLP-1 derivatives” (Novo Nordisk A/S, priority 2012, dated 2020).

Like-named read-outs stand apart in the source and are kept apart here.

Test [1] has as its target T1, human GLP-1 receptor (Homo sapiens, UniProt P43220).
T1 construct: expressed in transfected cells; host or cells: BHK cells, clone FCW467-12A/KZ10-1 (parent line BHKTS13), further transfected with CRE luciferase
As to the kind of experiment: In vitro potency (CRE luciferase; whole cells). In kind it is cell-based. As to conditions: BHK cells. The gist of the method:
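Stably transfected BHK cells carrying human GLP-1R and a CRE–firefly luciferase reporter, 5×10^3 cells/well in assay medium, run with 0% or 1% HSA in assay buffer.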

In test [2] the target is T1, human GLP-1 receptor. As to the kind of experiment: GLP-1 receptor binding (SPA, displacement of 125I-GLP-1). The gist of the method: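 Membranes from a stably transfected hamster cell line, 5-10 ug protein/sample, with WGA SPA beads and [125I]-GLP-1(7-36)NH2 at 0.06 nM final. Incubated 120 min at 30 °C with shaking, then counted.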
[3] abbreviates: In vitro potency (CRE luciferase) EC50 (0% HSA), 0% HSA.
The mark [4] stands for this setting: In vitro potency (CRE luciferase) EC50 (1% HSA), 1% HSA.
The mark [5] stands for this setting: Receptor binding affinity IC50 (high HSA), 2.0% HSA (high albumin).
[6] abbreviates: Receptor binding affinity IC50 (low HSA), 0.001% HSA (low albumin).

T1 sequence (P43220 24-463): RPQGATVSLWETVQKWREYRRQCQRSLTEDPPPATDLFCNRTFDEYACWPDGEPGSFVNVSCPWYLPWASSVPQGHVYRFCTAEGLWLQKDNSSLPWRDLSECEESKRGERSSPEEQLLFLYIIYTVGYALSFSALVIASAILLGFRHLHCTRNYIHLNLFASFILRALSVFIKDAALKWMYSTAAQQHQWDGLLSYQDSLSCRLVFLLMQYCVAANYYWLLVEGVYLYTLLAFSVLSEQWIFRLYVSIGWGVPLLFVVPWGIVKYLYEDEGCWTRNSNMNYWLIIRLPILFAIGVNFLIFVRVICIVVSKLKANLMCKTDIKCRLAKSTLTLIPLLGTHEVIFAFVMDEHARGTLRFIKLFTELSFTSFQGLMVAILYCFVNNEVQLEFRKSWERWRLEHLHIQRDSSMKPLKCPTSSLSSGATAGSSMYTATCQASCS

Regarding `CC[C@H](C)[C@H](NC(=O)[C@H](Cc1ccccc1)NC(=O)[C@H](CCC(=O)O)NC(=O)[C@H](CCCCNC(=O)[C@@H](N)CCCCNC(=O)[C@@H](N)CCCCNC(=O)CC[C@H](NC(=O)CCCCCCCCCOc1ccc(C(=O)O)cc1)C(=O)O)NC(=O)[C@H](C)NC(=O)[C@H](C)NC(=O)[C@H](CCC(N)=O)NC(=O)CNC(=O)[C@H](CCC(=O)O)NC(=O)[C@H](CC(C)C)NC(=O)[C@H](Cc1ccc(O)cc1)NC(=O)[C@H](CO)NC(=O)[C@H](CO)NC(=O)[C@@H](NC(=O)[C@H](CC(=O)O)NC(=O)[C@H](CO)NC(=O)[C@@H](NC(=O)[C@H](Cc1ccccc1)NC(=O)[C@@H](NC(=O)CNC(=O)[C@H](CCC(=O)O)NC(=O)C(C)(C)NC(=O)[C@@H](N)Cc1c[nH]cn1)[C@@H](C)O)[C@@H](C)O)C(C)C)C(=O)N[C@@H](C)C(=O)N[C@@H](Cc1c[nH]c2ccccc12)C(=O)N[C@@H](CC(C)C)C(=O)N[C@H](C(=O)N[C@@H](CCCNC(=N)N)C(=O)NCC(=O)N[C@@H](CCCNC(=N)N)C(=O)N[C@@H](CCCCNC(=O)[C@@H](N)CCCCNC(=O)[C@@H](N)CCCCNC(=O)CC[C@H](NC(=O)CCCCCCCCCOc1ccc(C(=O)O)cc1)C(=O)O)C(=O)O)C(C)C` [Example 1, N^ε26-[(2S)-2-amino-6-[[(2S)-2-amino-6-[[(4S)-4-carboxy-4-[10-(4-carboxyphenoxy)decanoylamino]butanoyl]amino]hexanoyl]amino]hexanoyl], N^ε37-[(2S)-2-amino-6-[[(2S)-2-amino-6-[[(4S)-4-carboxy-4-[10-(4-carboxyphenoxy)decanoylamino]butanoyl]amino]hexanoyl]amino]hexanoyl]-[Aib^8, Arg^34,Lys^37]-GLP-1-(7-37)-peptide], the EC50 (in general, the concentration giving half of the maximal effect) is 0.004 nM at human GLP-1 receptor [1] (setting [3]) and 0.057 nM at human GLP-1 receptor [1] (setting [4]). The IC50 – broadly, the midpoint of a concentration-inhibition curve – at human GLP-1 receptor [2] (setting [5]) is 13 nM.

With `CC[C@H](C)[C@H](NC(=O)[C@H](Cc1ccccc1)NC(=O)[C@H](CCC(=O)O)NC(=O)[C@H](CCCCNC(=O)[C@@H](N)CCCCNC(=O)[C@@H](N)CCCCNC(=O)CC[C@H](NC(=O)CCCCCCCCCCCCC(=O)O)C(=O)O)NC(=O)[C@H](C)NC(=O)[C@H](C)NC(=O)[C@H](CCC(N)=O)NC(=O)CNC(=O)[C@H](CCC(=O)O)NC(=O)[C@H](CC(C)C)NC(=O)[C@H](Cc1ccc(O)cc1)NC(=O)[C@H](CO)NC(=O)[C@H](CO)NC(=O)[C@@H](NC(=O)[C@H](CC(=O)O)NC(=O)[C@H](CO)NC(=O)[C@@H](NC(=O)[C@H](Cc1ccccc1)NC(=O)[C@@H](NC(=O)CNC(=O)[C@H](CCC(=O)O)NC(=O)C(C)(C)NC(=O)[C@@H](N)Cc1c[nH]cn1)[C@@H](C)O)[C@@H](C)O)C(C)C)C(=O)N[C@@H](C)C(=O)N[C@@H](Cc1c[nH]c2ccccc12)C(=O)N[C@@H](CC(C)C)C(=O)N[C@H](C(=O)N[C@@H](CCCNC(=N)N)C(=O)NCC(=O)N[C@@H](CCCNC(=N)N)C(=O)N[C@@H](CCCCNC(=O)[C@@H](N)CCCCNC(=O)[C@@H](N)CCCCNC(=O)CC[C@H](NC(=O)CCCCCCCCCCCCC(=O)O)C(=O)O)C(=O)O)C(C)C` [Example 2, N^ε26-[(2S)-2-amino-6-[[(2S)-2-amino-6-[[(4S)-4-carboxy-4-(13-carboxytridecanoylamino)butanoyl]amino]hexanoyl]amino]hexanoyl], N^ε37-[(2S)-2-amino-6-[[(2S)-2-amino-6-[[(4S)-4-carboxy-4-(13-carboxytridecanoylamino)butanoyl]amino]hexanoyl]amino]hexanoyl]-[Aib^8,Arg^34,Lys^37]-GLP-1-(7-37)-peptide], at human GLP-1 receptor [1] (setting [4]), the EC50 turned out to be 0.059 nM. Also, the IC50 at human GLP-1 receptor [2] (0.001% HSA (low albumin), read-out: Receptor binding affinity IC50 (low HSA)) amounted to 0.24 nM; on human GLP-1 receptor [2] (2.0% HSA (high albumin), read-out: Receptor binding affinity IC50 (high HSA)), 29 nM.

As to `CC[C@H](C)[C@H](NC(=O)[C@H](Cc1ccccc1)NC(=O)[C@H](CCC(=O)O)NC(=O)[C@H](CCCCNC(=O)[C@@H](N)CCCCNC(=O)COCCOCCNC(=O)COCCOCCNC(=O)CC[C@H](NC(=O)CCCCCCCCCOc1ccc(C(=O)O)cc1)C(=O)O)NC(=O)[C@H](C)NC(=O)[C@H](C)NC(=O)[C@H](CCC(N)=O)NC(=O)CNC(=O)[C@H](CCC(=O)O)NC(=O)[C@H](CC(C)C)NC(=O)[C@H](Cc1ccc(O)cc1)NC(=O)[C@H](CO)NC(=O)[C@H](CO)NC(=O)[C@@H](NC(=O)[C@H](CC(=O)O)NC(=O)[C@H](CO)NC(=O)[C@@H](NC(=O)[C@H](Cc1ccccc1)NC(=O)[C@@H](NC(=O)CNC(=O)[C@H](CCC(=O)O)NC(=O)C(C)(C)NC(=O)[C@@H](N)Cc1c[nH]cn1)[C@@H](C)O)[C@@H](C)O)C(C)C)C(=O)N[C@@H](C)C(=O)N[C@@H](Cc1c[nH]c2ccccc12)C(=O)N[C@@H](CC(C)C)C(=O)N[C@H](C(=O)N[C@@H](CCCNC(=N)N)C(=O)NCC(=O)N[C@@H](CCCNC(=N)N)C(=O)N[C@@H](CCCCNC(=O)[C@@H](N)CCCCNC(=O)COCCOCCNC(=O)COCCOCCNC(=O)CC[C@H](NC(=O)CCCCCCCCCOc1ccc(C(=O)O)cc1)C(=O)O)C(=O)O)C(C)C` [Example 5], the values for the EC50 at human GLP-1 receptor [1] (setting [3]) and at human GLP-1 receptor [1] (setting [4]) were 0.0054 nM and 0.033 nM, respectively. In addition, the IC50 at human GLP-1 receptor [2] (setting [5]) was found to be 64 nM; on human GLP-1 receptor [2] (setting [6]), 1.03 nM.

Take `CC[C@H](C)[C@H](NC(=O)[C@H](Cc1ccccc1)NC(=O)[C@H](CCC(=O)O)NC(=O)[C@H](CCCCNC(=O)[C@@H](N)CCCCNC(=O)[C@@H](N)CCCCNC(=O)CC[C@H](NC(=O)CCCCCCCNC(=O)CCCCCCCCCOc1ccc(C(=O)O)cc1)C(=O)O)NC(=O)[C@H](C)NC(=O)[C@H](C)NC(=O)[C@H](CCC(N)=O)NC(=O)CNC(=O)[C@H](CCC(=O)O)NC(=O)[C@H](CC(C)C)NC(=O)[C@H](Cc1ccc(O)cc1)NC(=O)[C@H](CO)NC(=O)[C@H](CO)NC(=O)[C@@H](NC(=O)[C@H](CC(=O)O)NC(=O)[C@H](CO)NC(=O)[C@@H](NC(=O)[C@H](Cc1ccccc1)NC(=O)[C@@H](NC(=O)CNC(=O)[C@H](CCC(=O)O)NC(=O)C(C)(C)NC(=O)[C@@H](N)Cc1c[nH]cn1)[C@@H](C)O)[C@@H](C)O)C(C)C)C(=O)N[C@@H](C)C(=O)N[C@@H](Cc1c[nH]c2ccccc12)C(=O)N[C@@H](CC(C)C)C(=O)N[C@H](C(=O)N[C@@H](CCCNC(=N)N)C(=O)NCC(=O)N[C@@H](CCCNC(=N)N)C(=O)N[C@@H](CCCCNC(=O)[C@@H](N)CCCCNC(=O)[C@@H](N)CCCCNC(=O)CC[C@H](NC(=O)CCCCCCCNC(=O)CCCCCCCCCOc1ccc(C(=O)O)cc1)C(=O)O)C(=O)O)C(C)C` [Example 26, N^ε26-[(2S)-2-amino-6-[[(2S)-2-amino-6-[[(4S)-4-carboxy-4-[8-[10-(4-carboxyphenoxy)decanoylamino]octanoylamino]butanoyl]amino]hexanoyl]amino]hexanoyl], N^ε37-[(2S)-2-amino-6-[[(2S)-2-amino-6-[[(4S)-4-carboxy-4-[8-[10-(4-carboxyphenoxy)decanoylamino]octanoylamino]butanoyl]amino]hexanoyl]amino]hexanoyl]-[Aib^8,Arg^34,Lys^37]-GLP-1-(7-37)-peptide]: the IC50 was 106 nM at human GLP-1 receptor [2] (setting [5]) and 0.38 nM at human GLP-1 receptor [2] (setting [6]).
